From patent publication US11136351B2 (priority 2016, dated 2021)
Structures can show the parent of a compound that is named as a salt. Where two headings read alike, the source gives them in different places.

Tests used:
mouse HVA Ca^2+ channel = type: cell-based; conditions: 50 μM
[1] = test system: HVA calcium channels in rat DRG neurons; type: cell-based
α7 nAChRs = α7 nAChRs (Homo sapiens, UniProt P36544); conditions: cited from earlier work
rat α9α10 nAChRs = rat α9α10 nAChRs (Rattus norvegicus, UniProt P43144+Q9JLB5); conditions: cited from earlier work
human α9α10 nAChR = biological target: T1, human α9α10 nAChR (Homo sapiens, UniProt Q9GZZ6+Q9UGM1); type: cell-based; conditions: 1 μM
T1 construct: expressed in transfected cells; host or cells: Xenopus laevis oocytes

human α9α10 nAChRs = human α9α10 nAChRs (Homo sapiens, UniProt Q9GZZ6+Q9UGM1); conditions: cited from earlier work
Chain of human α9α10 nAChRs (Q9UGM1 26-479 limits assumed): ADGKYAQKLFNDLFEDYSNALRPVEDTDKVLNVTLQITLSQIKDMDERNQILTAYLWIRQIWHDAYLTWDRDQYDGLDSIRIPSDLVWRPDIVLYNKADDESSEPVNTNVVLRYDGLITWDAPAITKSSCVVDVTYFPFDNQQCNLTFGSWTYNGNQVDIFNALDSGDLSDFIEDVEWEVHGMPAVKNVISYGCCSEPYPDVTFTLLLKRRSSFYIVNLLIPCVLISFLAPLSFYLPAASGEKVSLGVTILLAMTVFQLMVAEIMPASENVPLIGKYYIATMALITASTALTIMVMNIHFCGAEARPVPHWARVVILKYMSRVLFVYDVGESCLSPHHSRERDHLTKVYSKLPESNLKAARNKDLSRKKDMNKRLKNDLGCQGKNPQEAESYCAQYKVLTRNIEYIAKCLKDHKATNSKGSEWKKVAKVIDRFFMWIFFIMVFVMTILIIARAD
Chain of human α9α10 nAChRs (Q9GZZ6 25-450): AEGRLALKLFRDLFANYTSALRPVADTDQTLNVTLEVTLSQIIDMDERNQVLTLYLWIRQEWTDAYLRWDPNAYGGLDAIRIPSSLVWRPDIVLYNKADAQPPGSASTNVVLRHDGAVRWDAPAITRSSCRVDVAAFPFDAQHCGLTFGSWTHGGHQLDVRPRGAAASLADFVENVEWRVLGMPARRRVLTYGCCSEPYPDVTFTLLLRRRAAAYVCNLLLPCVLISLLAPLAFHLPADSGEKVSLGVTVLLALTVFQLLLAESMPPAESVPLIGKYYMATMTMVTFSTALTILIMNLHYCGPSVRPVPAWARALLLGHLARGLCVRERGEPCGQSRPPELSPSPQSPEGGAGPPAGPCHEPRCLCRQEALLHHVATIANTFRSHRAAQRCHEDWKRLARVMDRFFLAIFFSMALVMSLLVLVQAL

Chain of rat α9α10 nAChRs (P43144 26-479 limits assumed): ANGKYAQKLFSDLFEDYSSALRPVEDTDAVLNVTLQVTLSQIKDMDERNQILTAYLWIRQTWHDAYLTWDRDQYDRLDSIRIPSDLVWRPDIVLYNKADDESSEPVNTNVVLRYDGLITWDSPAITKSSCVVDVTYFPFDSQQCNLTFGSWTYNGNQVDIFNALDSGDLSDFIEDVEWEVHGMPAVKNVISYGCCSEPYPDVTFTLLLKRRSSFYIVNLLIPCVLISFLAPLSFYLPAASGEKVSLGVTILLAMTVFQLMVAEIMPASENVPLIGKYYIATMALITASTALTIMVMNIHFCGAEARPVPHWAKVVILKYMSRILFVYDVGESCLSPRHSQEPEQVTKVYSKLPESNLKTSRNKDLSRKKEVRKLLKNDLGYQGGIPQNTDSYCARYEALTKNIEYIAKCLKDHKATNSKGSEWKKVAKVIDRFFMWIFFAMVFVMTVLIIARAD
Chain of rat α9α10 nAChRs (Q9JLB5 25-447 limits assumed): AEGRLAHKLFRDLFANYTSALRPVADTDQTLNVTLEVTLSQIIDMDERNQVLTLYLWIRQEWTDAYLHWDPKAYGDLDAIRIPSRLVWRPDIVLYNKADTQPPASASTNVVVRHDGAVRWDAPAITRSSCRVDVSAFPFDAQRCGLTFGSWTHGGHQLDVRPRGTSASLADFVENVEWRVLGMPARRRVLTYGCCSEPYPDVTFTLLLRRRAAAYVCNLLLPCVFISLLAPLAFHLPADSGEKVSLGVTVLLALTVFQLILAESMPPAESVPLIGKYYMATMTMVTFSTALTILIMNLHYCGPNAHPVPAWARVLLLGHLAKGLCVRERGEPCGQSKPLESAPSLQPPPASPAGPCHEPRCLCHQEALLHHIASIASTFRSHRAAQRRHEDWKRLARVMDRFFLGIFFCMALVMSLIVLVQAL
T1 sequence (Q9UGM1 26-479 limits assumed): as the sequence (Q9UGM1 26-479 limits assumed) above
T1 sequence (Q9GZZ6 25-450): as the sequence (Q9GZZ6 25-450) above
Chain of α7 nAChRs (P36544 23-502 limits assumed): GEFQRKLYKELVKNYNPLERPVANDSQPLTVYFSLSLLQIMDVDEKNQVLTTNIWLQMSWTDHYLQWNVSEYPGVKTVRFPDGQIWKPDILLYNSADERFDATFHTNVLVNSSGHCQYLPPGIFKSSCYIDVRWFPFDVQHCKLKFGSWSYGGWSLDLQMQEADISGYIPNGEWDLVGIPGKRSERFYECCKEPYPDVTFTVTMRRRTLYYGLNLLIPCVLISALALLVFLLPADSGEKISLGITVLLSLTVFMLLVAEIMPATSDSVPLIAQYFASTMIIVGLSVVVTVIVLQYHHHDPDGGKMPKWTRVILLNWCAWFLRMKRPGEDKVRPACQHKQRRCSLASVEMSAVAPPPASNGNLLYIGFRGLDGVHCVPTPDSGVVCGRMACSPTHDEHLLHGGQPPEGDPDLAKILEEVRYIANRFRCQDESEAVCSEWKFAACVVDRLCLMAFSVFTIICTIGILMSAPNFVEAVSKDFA

Compound	mouse HVA Ca^2+ channel I/Icontrol ± SEM (n) (mouse HVA Ca^2+ channel)	peak ICa inhibition (mouse HVA Ca^2+ channel) [%]	reversibility of IBa inhibition [1]	IBa I/Icontrol ± SEM (n) ([1]; 50 μM)	fraction of total IBa suppressed ([1]; 50 μM) [%]	rat HVA Ca^2+ channel I/Icontrol ± SEM (n) ([1]; 50 μM)	IC50 (α7 nAChRs) [nM]	IC50 (rat α9α10 nAChRs) [nM]	inhibition of HVA calcium currents by globular, ribbon and beads isomers [1]	rat HVA Ca^2+ channel I/Icontrol ± SEM (n) ([1]; 1 μM)	human α9α10 nAChR I/Icontrol ± SEM (n) (human α9α10 nAChR)	IC50 (human α9α10 nAChRs) [nM]
NC[C@H](CC(=O)O)c1ccc(Cl)cc1 [Baclofen, R-(+)-baclofen hydrochloride]	0.60 ± 0.03 (11)	41.5±2.7	reversible on washout	0.64 ± 0.018 (36)	~35	0.64 ± 0.01 (33)						
Vc1.1							~7100	64	found to inhibit HVA calcium currents	0.73 ± 0.03 (4)	0.57 ± 0.020 (17)	765
